Measured values published in ChEMBL document CHEMBL1147043, “Comparative metabolism of radiolabeled muraglitazar in animals and humans by quantitative and qualitative metabolite profiling” (Drug Metab Dispos, 2007).
pEC50, pIC50: −log10 of the molar value.

Assays:
[1] = target: T1, Peroxisome proliferator-activated receptor alpha (Homo sapiens) (UniProt Q07869); assay: (§1) Agonist activity at PPAR alpha in human HEK cells by transactivation assay; type: functional, cell-based; details: HEK293
T1 sequence (whole entry): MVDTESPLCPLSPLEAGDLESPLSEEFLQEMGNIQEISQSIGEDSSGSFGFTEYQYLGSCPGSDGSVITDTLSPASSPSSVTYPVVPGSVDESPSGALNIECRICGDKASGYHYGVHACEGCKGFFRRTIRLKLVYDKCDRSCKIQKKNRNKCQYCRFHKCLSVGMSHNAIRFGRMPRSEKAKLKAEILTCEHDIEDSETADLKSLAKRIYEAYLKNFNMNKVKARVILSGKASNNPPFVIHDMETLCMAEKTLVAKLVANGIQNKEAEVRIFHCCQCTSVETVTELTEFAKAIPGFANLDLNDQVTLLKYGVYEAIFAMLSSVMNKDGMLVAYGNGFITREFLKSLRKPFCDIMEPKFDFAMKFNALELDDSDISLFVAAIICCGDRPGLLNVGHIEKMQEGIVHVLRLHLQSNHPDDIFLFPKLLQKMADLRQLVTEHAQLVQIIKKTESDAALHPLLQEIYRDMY

[2] = target: T2, Peroxisome proliferator-activated receptor alpha (Homo sapiens, UniProt Q07869); assay: as §1; type: functional, cell-based, HEK293
T2 sequence (Q07869 whole entry): T1 sequence (whole entry)

[3] = target: T3, Peroxisome proliferator-activated receptor gamma (Homo sapiens, UniProt P37231); assay: Binding affinity at PPAR gamma receptor
T3 sequence (P37231 whole entry): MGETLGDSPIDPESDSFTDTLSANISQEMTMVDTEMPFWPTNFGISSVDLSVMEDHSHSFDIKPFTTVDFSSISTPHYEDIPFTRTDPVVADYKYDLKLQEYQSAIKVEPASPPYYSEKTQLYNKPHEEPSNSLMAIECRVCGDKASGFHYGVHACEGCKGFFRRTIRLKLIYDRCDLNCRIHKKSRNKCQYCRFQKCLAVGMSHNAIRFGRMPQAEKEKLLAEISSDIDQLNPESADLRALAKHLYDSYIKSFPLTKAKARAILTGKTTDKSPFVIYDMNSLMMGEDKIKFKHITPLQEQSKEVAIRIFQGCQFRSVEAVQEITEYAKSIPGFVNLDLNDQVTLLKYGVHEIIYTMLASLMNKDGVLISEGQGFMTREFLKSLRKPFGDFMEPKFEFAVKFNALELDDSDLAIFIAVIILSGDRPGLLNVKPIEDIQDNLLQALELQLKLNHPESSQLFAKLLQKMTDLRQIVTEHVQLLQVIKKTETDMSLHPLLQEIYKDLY

[4] = Bile excretion of compound in bile duct-cannulated orally dosed cynomolgus monkey within 48 hrs; type: ADME, organism-based, Macaca fascicularis; details: po, read-out: Activity
[5] = target: T2, Peroxisome proliferator-activated receptor alpha; assay: Binding affinity at PPAR alpha receptor
[6] = target: T1, Peroxisome proliferator-activated receptor alpha (Homo sapiens); assay: Intrinsic activity at PPAR alpha in human HEK cells at 1 uM by transactivation assay; type: cell-based; details: HEK293
[7] = Bile excretion of compound in bile duct-cannulated orally dosed Sprague-Dawley rat within 24 hrs; type: ADME, organism-based; details: po, read-out: Activity
[8] = Cmax in cynomolgus monkey at 1.9 mg/kg, po after 144 hrs; type: ADME, organism-based, Macaca fascicularis; parameters: dose 1.9 mg/kg, route oral; details: in vivo
[9] = AUC (0 to T) in cynomolgus monkey at 1.9 mg/kg, po after 144 hrs; type: ADME, organism-based, Macaca fascicularis; parameters: time < 144 hr, dose 1.9 mg/kg, route oral; details: plasma
[10] = Half life in Sprague-Dawley rat at 10 mg/kg, po after 96 hrs; type: ADME, organism-based; parameters: dose 10 mg/kg, route oral; details: in vivo
[11] = Tmax in Beagle dog at 2 mg/kg, po after 12 hrs; type: ADME, organism-based, Canis lupus familiaris; parameters: dose 2 mg/kg, route oral; details: in vivo
[12] = Cmax in human at 10 mg, po after 192 hrs; type: ADME, organism-based; parameters: dose 10 mg, route oral; details: in vivo
[13] = Half life in human at 10 mg, po after 192 hrs; type: ADME, organism-based; details: in vivo
[14] = AUC (0 to T) in Beagle dog at 2 mg/kg, po after 12 hrs; type: ADME, organism-based, Canis lupus familiaris; parameters: time < 12 hr, dose 2 mg/kg, route oral; details: plasma
[15] = Cmax in Sprague-Dawley rat at 10 mg/kg, po after 96 hrs; type: ADME, organism-based; parameters: dose 10 mg/kg, route oral; details: in vivo
[16] = AUC (0 to T) in Sprague-Dawley rat at 10 mg/kg, po after 96 hrs; type: ADME, organism-based; parameters: time < 96 hr, dose 10 mg/kg, route oral; details: plasma
[17] = Half life in cynomolgus monkey at 1.9 mg/kg, po after 144 hrs; type: ADME, organism-based, Macaca fascicularis; parameters: dose 1.9 mg/kg, route oral; details: in vivo
[18] = AUC (0 to T) in human at 10 mg, po after 192 hrs; type: ADME, organism-based; parameters: dose 10 mg, time < 192 hr, route oral; details: plasma
[19] = Tmax in Sprague-Dawley rat at 10 mg/kg, po after 96 hrs; type: ADME, organism-based; parameters: dose 10 mg/kg, route oral; details: in vivo
[20] = Tmax in cynomolgus monkey at 1.9 mg/kg, po after 144 hrs; type: ADME, organism-based, Macaca fascicularis; parameters: dose 1.9 mg/kg, route oral; details: in vivo
[21] = Tmax in human at 10 mg, po after 192 hrs; type: ADME, organism-based; details: in vivo
[22] = Half life in Beagle dog at 2 mg/kg, po after 12 hrs; type: ADME, organism-based, Canis lupus familiaris; parameters: dose 2 mg/kg, route oral; details: in vivo
[23] = Cmax in Beagle dog at 2 mg/kg, po after 12 hrs; type: ADME, organism-based, Canis lupus familiaris; parameters: dose 2 mg/kg, route oral; details: in vivo

| pEC50 [2] | pIC50 [3] | dose excreted at 48 h [4] [%] | pIC50 [5] | SMILES | further results |
| --- | --- | --- | --- | --- | --- |
| 6.59 | 5.69 | < 5 | 7.00 | COc1ccc(OC(=O)N(CC(=O)O)Cc2ccc(OCCc3nc(-c4ccc(O)cc4)oc3C)cc2)cc1 | %max [1]: 93%; Intrinsic activity [6]: 78% |
| 4.74 | < 4.82 | < 5 | < 4.82 | O=C(O)CN(Cc1ccc(OCCc2nc(-c3ccccc3)oc2CO)cc1)C(=O)Oc1ccc(O)cc1 | %max [1]: 69%; Intrinsic activity [6]: 2% |
|  |  | < 5 |  | Cc1oc(-c2ccccc2)nc1CC(O)Oc1ccc(CN(CC(=O)O)C(=O)Oc2ccc(O)cc2)cc1 (configuration not stated) |  |
| 5.16 | < 4.82 | < 5 | 5.43 | Cc1oc(-c2ccccc2)nc1CCOc1ccc(CN(CC(=O)O)C(=O)Oc2ccc(O)cc2)cc1 | %max [1]: 78%; dose excreted at 24 h [7]: 11%; Intrinsic activity [6]: 6% |
|  |  | < 5 |  | COc1ccc(OC(=O)N(CC(=O)O)Cc2ccc(OC(O)Cc3nc(-c4ccccc4)oc3CO)cc2)cc1 (configuration not stated) |  |
|  |  | < 5 |  | Cc1oc(-c2ccccc2)nc1C(O)COc1ccc(CN(CC(=O)O)C(=O)Oc2ccc(O)cc2)cc1 (configuration not stated) |  |
|  |  | < 5 |  | COc1ccc(OC(=O)N(CC(=O)O)Cc2ccc(OCC(O)c3nc(-c4ccccc4)oc3CO)cc2)cc1 (configuration not stated) |  |
|  |  | < 5 |  | COc1ccc(OC(=O)N(CC(=O)O)Cc2ccc(OCC(O)c3nc(-c4ccccc4)oc3C)cc2)cc1 (configuration not stated) |  |
|  |  | < 5 |  | COc1ccc(OC(=O)N(CC(=O)O)Cc2ccc(OC(O)Cc3nc(-c4ccc(O)cc4)oc3C)cc2)cc1 (configuration not stated) |  |
| 5.71 | < 4.82 | < 5 | 5.51 | COc1ccc(OC(=O)N(CC(=O)O)Cc2ccc(OCCc3nc(-c4ccccc4)oc3CO)cc2)cc1 | %max [1]: 88%; Intrinsic activity [6]: 24% |
|  |  | < 5 |  | COc1ccc(OC(=O)N(CC(=O)O)Cc2ccc(OCCc3nc(-c4ccccc4)oc3C(=O)O)cc2)cc1 |  |

Second part, the compound before the results:

| SMILES | pEC50 [2] | pIC50 [3] | dose excreted at 48 h [4] [%] | pIC50 [5] | further results |
| --- | --- | --- | --- | --- | --- |
| COc1ccc(OC(=O)N(CC(=O)O)Cc2ccc(OCCc3nc(-c4ccc(O)cc4)oc3CO)cc2)cc1 |  |  | < 5 |  |  |
| Cc1oc(-c2ccc(O)cc2)nc1CCOc1ccc(CN(CC(=O)O)C(=O)Oc2ccc(O)cc2)cc1 |  |  | < 5 |  |  |
| O=C(O)CN(Cc1ccc(O)cc1)C(=O)Oc1ccc(O)cc1 |  |  | < 5 |  |  |
| Cc1oc(-c2ccc(O[C@@H]3O[C@H](C(=O)O)[C@@H](O)[C@H](O)[C@H]3O)cc2)nc1CCOc1ccc(CN(CC(=O)O)C(=O)Oc2ccc(O)cc2)cc1 |  |  | < 5 |  |  |
| COc1ccc(OC(=O)N(CC(=O)O)Cc2ccc(OCCC(=O)N(C(C)=O)C(=O)c3ccccc3)cc2)cc1 | < 4.60 | < 4.82 | < 5 | < 4.82 |  |
| COc1ccc(OC(=O)N(CC(=O)O)Cc2ccc(OCCC(=O)NC(=O)c3ccccc3)cc2)cc1 | < 4.60 | < 4.82 | < 5 | < 4.82 |  |
| COc1ccc(OC(=O)N(CC(=O)O)Cc2ccc(O)cc2)cc1 | < 4.60 | < 4.82 | < 5 | < 4.82 |  |
| COc1ccc(OC(=O)N(CC(=O)O)Cc2ccc(OCCc3nc(-c4ccccc4)oc3C)cc2)cc1 |  |  |  |  | Intrinsic activity [6]: 120% |
| COc1ccc(OC(=O)N(CC(=O)O)Cc2ccc(OCCc3nc(-c4ccccc4)oc3C)cc2)cc1.Cl [MURAGLITAZAR CHLORIDE] | 7.46 |  |  | 6.73 | Cmax [8]: 6900 ng/mL; AUC(0-t) at 144 h [9]: 41000 ng·h/mL; half-life [10]: 10.3 h; Tmax [11]: 0.5 h; Cmax [12]: 1800 ng/mL; half-life [13]: 35.1 h; AUC(0-t) at 12 h [14]: 1300 ng·h/mL; Cmax [15]: 12800 ng/mL; AUC(0-t) at 96 h [16]: 101000 ng·h/mL; half-life [17]: 18 h; AUC(0-t) at 192 h [18]: 12000 ng·h/mL; Tmax [19]: 0.5 h; Tmax [20]: 1 h; Tmax [21]: 1 h; half-life [22]: 5.7 h; Cmax [23]: 800 ng/mL |
